According to patent publication EP0658342A1, “Antineoplastic pharmaceutical composition containing a fumagillol derivative” (Takeda Chemical Industries, Ltd., priority 1993, dated 1995):

Test system: Hormone-independent human prostatic cancer PC-3 strain cells
Test: Tumor growth inhibitory activity against subcutaneously transplanted PC-3 tumors in Balb/c nu/nu mice (Experiments 1 and 2)
Format: in vivo
Conditions: one-week intervals from 17th day; for Tumor size gain (mm³) mean±SD: Experiment 1, s.c. PC-3, Compound A 100 mg/kg s.c. (maltosyl-β-cyclodextrin inclusion compound), gain over size at first administration; for Tumor size ratio (T/C %): treated vs control group; for Tumor size gain (mm³) means±SD: Experiment 2, s.c. PC-3, Compound A 100 mg/kg s.c. (maltosyl-β-cyclodextrin inclusion compound)
Method: Hormone-independent human prostatic cancer PC-3 strain cells (hereinafter abbreviated as PC-3 cells) subcultured in vitro using a petri dish for tissue culture were removed from the dish wall by using 0.25% trypsin. The cells thus obtained were rinsed with Ham F-12K medium containing 10% serum and suspended in PBS (phosphate-buffered saline) so that the concentration of the cells became 3 x 10⁷/ml, and 100 µl of the resulting suspension was transplanted to the central part of the right side of the abdomens of Balb/c nu/nu mice (9 weeks old, male) with an injection syringe (25G needle). The tumor size was determined on the 17th day. The mice were divided into groups so that the mean tumor size of each groups was 96 to 97 mm³. Then administration of the drug prepared by the following method was started. The tumor size was determined with a caliper in terms of the major axis (a) and minor axis (b), and calculated from the following formula: 0.5 x a x b².
A 5% glucose solution was added to an inclusion compound of Compound A and maltosyl-β-cyclodextrin obtained in Reference Example 1 to adjust a dosage volume to 10 µl/g body weight of each mouse, and the resulting solution was administered to dorsal subcutaneous parts of mice.
The injection Randa (trade name, manufactured by Nippon Kayaku K.K., Japan) was used as cisplatin, dissolved in saline, adjusted to a dosage volume of 10 µl/g body weight of each mouse, and intraperitoneally administered to mice.
In the case of administration of Compound A alone and cisplatin alone, the first administration was carried out on the 17th day after the transplantation, and thereafter administrations were carried out at one-week intervals. In the case of concomitant administration of Compound A and cisplatin, cisplatin was administered on the 17th day after the transplantation, and Compound A was administered on the 21th day after the transplantation. Thereafter, each drug was administered at one-week intervals.
Tumor growth inhibitory activity was evaluated on the 49th day after the transplantation as follows. Each tumor size was determined on the 49th day, the tumor size on the day of the first administration was subtracted from the size on the 49th day, and the ratio (T/C%) of the tumor size of the drug administration group (T) to that of the control group (C) was calculated. The dose of the drug is indicated in terms of the weight of the drug (mg/kg body weight) per administration.
Mice bearing PC-3 cancer cells were prepared according to the same manner as that in Experiment 1. The tumor size was determined on the 17th day after the transplantation. Mice were divided into groups so that the average tumor size of each group was 108 to 109 mm³. Then drug administration was started. Preparation of the drug, determination of the tumor size, evaluation of tumor growth inhibitory activity, etc., were carried out according to the methods of Experiment 1.
In the case of administration of Compound A alone and cisplatin alone, the first administration was carried out on the 17th day after the transplantation, and thereafter administrations were carried out at one-week intervals.
The following three combinations of the drugs were administered. Cisplatin and Compound A were administered on the 17th day and 21th day after the transplantation, respectively, and thereafter each drug was administered at one-week intervals. These administrations are hereinafter referred to as Combination 1. Compound A and cisplatin were administered on the 17th day and 21th day after the transplantation, respectively, and thereafter each drug was administered at one-week intervals. These administrations are hereinafter referred to as Combination 2. Compound A and cisplatin were administered simultaneously on the 17th day after the transplantation, and thereafter each drug was administered at on-week intervals. These administrations are hereinafter referred to as Combination 3. […]

[1] = cisplatin 4 mg/kg i.p., evaluated 49th day
[2] = Experiment 1, s.c. PC-3, Compound A 100 mg/kg s.c., cisplatin 4 mg/kg i.p., evaluated 49th day
[3] = cisplatin 5 mg/kg i.p., evaluated 42th day
[4] = Experiment 2, s.c. PC-3, Compound A 100 mg/kg s.c., cisplatin 5 mg/kg i.p., evaluated 42th day

Compound	Tumor size gain (mm³) mean±SD [1] [mm³]	Tumor size ratio (T/C %) [2] [%]	Tumor size gain (mm³) means±SD [3] [mm³]	Tumor size ratio (T/C %) [4] [%]
6-O-(N-chloroacetylcarbamoyl)fumagillol [Compound A]	591±242	49	400±126	30
N.N.[Cl][Pt][Cl] [Cisplatin, cisplatin]	230±182	19	345±163	26
